Measured values: patent publication US9623028B2, “Methods of treating a cancer using substituted pyrrolopyrimidine compounds, compositions thereof” (Signal Pharmaceuticals, LLC, priority 2014, dated 2017)
Read-outs that look alike come from different tables or passages of the source.

System: breast cancer cell lines
Assay: cells
Conditions: for IC50: read-out: Growth Inhibition IC50; for GI50: read-out: Growth inhibition GI50
[1] = Homo sapiens, MDA-MB-175-VII, 96 h

CNC(=O)c1ccc(Nc2nc(OC(C)C)c3c(-c4ccc5nc(C)oc5c4)c[nH]c3n2)c(OC)c1 [Compound 125, 4-((4-isopropoxy-5-(2-methylbenzo[d]oxazol-6-yl)-7H-pyrrolo[2,3-d]pyrimidin-2-yl)amino)-3-methoxy-N-methylbenzamide]
IC50 (96 h): 0.419 µM | GI50 (96 h): 0.116 µM | IC50 (EFM-192A, 96 h): 1.28 µM | GI50 (EFM-192A, 96 h): 0.294 µM | IC50 (HCC202, 96 h): 0.19 µM | GI50 (HCC202, 96 h): 0.028 µM | IC50 (HCC1500, 96 h): 2.28 µM | GI50 (HCC1500, 96 h): 0.103 µM | IC50 (Homo sapiens, AU565, 96 h): 0.021 µM | GI50 (Homo sapiens, AU565, 96 h): 0.016 µM | IC50 (Homo sapiens, BT-20, 96 h): 0.044 µM | GI50 (Homo sapiens, BT-20, 96 h): 0.028 µM | IC50 (Homo sapiens, BT-474, 96 h): 0.595 µM | GI50 (Homo sapiens, BT-474, 96 h): 10 µM | IC50 (Homo sapiens, BT-483, 96 h): 3.4 µM | IC50 (Homo sapiens, BT-549, 96 h): 0.066 µM | GI50 (Homo sapiens, BT-549, 96 h): 0.034 µM | IC50 (Homo sapiens, CAL-51, 96 h): 0.01 µM | GI50 (Homo sapiens, CAL-51, 96 h): 0.009 µM | IC50 (Homo sapiens, CAL-85-1, 96 h): 0.093 µM | GI50 (Homo sapiens, CAL-85-1, 96 h): 0.029 µM | IC50 (Homo sapiens, CAL-120, 96 h): 0.272 µM | GI50 (Homo sapiens, CAL-120, 96 h): 10 µM | IC50 (Homo sapiens, CAL-148, 96 h): 0.168 µM | GI50 (Homo sapiens, CAL-148, 96 h): 0.047 µM | IC50 (Homo sapiens, CAMA-1, 96 h): 0.763 µM | GI50 (Homo sapiens, CAMA-1, 96 h): 0.59 µM | IC50 (Homo sapiens, DU-4475, 96 h): 0.246 µM | GI50 (Homo sapiens, DU-4475, 96 h): 0.038 µM | IC50 (Homo sapiens, EFM-19, 96 h): 0.181 µM | GI50 (Homo sapiens, EFM-19, 96 h): 0.035 µM | IC50 (Homo sapiens, EVSA-T, 96 h): 0.206 µM | GI50 (Homo sapiens, EVSA-T, 96 h): 6 µM | IC50 (Homo sapiens, HCC38, 96 h): 0.012 µM | GI50 (Homo sapiens, HCC38, 96 h): 0.009 µM | IC50 (Homo sapiens, HCC70, 96 h): 0.268 µM | GI50 (Homo sapiens, HCC70, 96 h): 0.047 µM | IC50 (Homo sapiens, HCC1143, 96 h): 0.481 µM | GI50 (Homo sapiens, HCC1143, 96 h): 0.215 µM | IC50 (Homo sapiens, HCC1187, 96 h): 0.031 µM | GI50 (Homo sapiens, HCC1187, 96 h): 0.027 µM | IC50 (Homo sapiens, HCC1419, 96 h): 2.51 µM | GI50 (Homo sapiens, HCC1419, 96 h): 10 µM | IC50 (Homo sapiens, HCC1428, 96 h): 0.472 µM | GI50 (Homo sapiens, HCC1428, 96 h): 0.326 µM | IC50 (Homo sapiens, HCC1569, 96 h): 0.408 µM | GI50 (Homo sapiens, HCC1569, 96 h): 0.088 µM | IC50 (Homo sapiens, HCC1806, 96 h): 0.011 µM | GI50 (Homo sapiens, HCC1806, 96 h): 0.008 µM | IC50 (Homo sapiens, HCC1937, 96 h): 0.311 µM | GI50 (Homo sapiens, HCC1937, 96 h): 6.38 µM | IC50 (Homo sapiens, HCC1954, 96 h): 0.068 µM | GI50 (Homo sapiens, HCC1954, 96 h): 0.027 µM | IC50 (Homo sapiens, HDQ-P1, 96 h): 0.083 µM | GI50 (Homo sapiens, HDQ-P1, 96 h): 0.106 µM | IC50 (Homo sapiens, Hs-578T, 96 h): 0.041 µM | GI50 (Homo sapiens, Hs-578T, 96 h): 0.047 µM | IC50 (Homo sapiens, JIMT-1, 96 h): 0.165 µM | GI50 (Homo sapiens, JIMT-1, 96 h): 0.061 µM | IC50 (Homo sapiens, MCF7, 96 h): 0.012 µM | GI50 (Homo sapiens, MCF7, 96 h): 0.011 µM | IC50 (Homo sapiens, MDA-MB-134-VI, 96 h): 3.17 µM | IC50 (Homo sapiens, MDA-MB-157, 96 h): 0.631 µM | GI50 (Homo sapiens, MDA-MB-157, 96 h): 0.114 µM | IC50 [1]: 2.84 µM | GI50 [1]: 5.29 µM | IC50 (Homo sapiens, MDA-MB-231, 96 h): 0.031 µM | GI50 (Homo sapiens, MDA-MB-231, 96 h): 0.019 µM | IC50 (Homo sapiens, MDA-MB-361, 96 h): 1.47 µM | GI50 (Homo sapiens, MDA-MB-361, 96 h): 0.091 µM | IC50 (Homo sapiens, MDA-MB-415, 96 h): 5.51 µM | GI50 (Homo sapiens, MDA-MB-415, 96 h): 10 µM | IC50 (Homo sapiens, MDA-MB-436, 96 h): 0.51 µM | GI50 (Homo sapiens, MDA-MB-436, 96 h): 0.999 µM | IC50 (Homo sapiens, MDA-MB-453, 96 h): 0.668 µM | GI50 (Homo sapiens, MDA-MB-453, 96 h): 10 µM | IC50 (Homo sapiens, MDA-MB-468, 96 h): 0.024 µM | GI50 (Homo sapiens, MDA-MB-468, 96 h): 0.023 µM | IC50 (Homo sapiens, MFM-223, 96 h): 0.172 µM | GI50 (Homo sapiens, MFM-223, 96 h): 0.043 µM | IC50 (Homo sapiens, SK-BR-3, 96 h): 0.272 µM | GI50 (Homo sapiens, SK-BR-3, 96 h): 0.081 µM | IC50 (Homo sapiens, T47D, 96 h): 0.336 µM | GI50 (Homo sapiens, T47D, 96 h): 0.081 µM | IC50 (Homo sapiens, UACC-812, 96 h): 0.296 µM | GI50 (Homo sapiens, UACC-812, 96 h): 0.319 µM | IC50 (Homo sapiens, UACC-893, 96 h): 0.787 µM | IC50 (Homo sapiens, ZR-75-1, 96 h): 3.31 µM | GI50 (Homo sapiens, ZR-75-1, 96 h): 0.032 µM | IC50 (Homo sapiens, ZR-75-30, 96 h): 0.715 µM | IC50 (KPL-1, 96 h): 0.064 µM | GI50 (KPL-1, 96 h): 0.126 µM | IC50 (MT-3, 96 h): 8.5 µM | GI50 (MT-3, 96 h): 5.76 µM
